Several values for one entry are separate records, joined by “and”; a condition that tells them apart may be missing. Equal values may be shown once.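 Where inhibition never reached the appropriate level, the endpoint shown equals the highest concentration tested. Otherwise, values were interpolated linearly from a five-concentration, 48-hour dose response in 96-well plates. GI50: concentration for 50% inhibition of growth. TGI denotes the concentration required for complete inhibition of growth.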
How the values were obtained:
Assay in all cases: NCI-60 cell line screen, 48 h
[1] = test system: MALME-3M melanoma
[2] = test system: OVCAR-8 ovarian
[3] = test system: UACC-62 melanoma
[4] = test system: SNB-19 CNS
[5] = test system: M14 melanoma
[6] = test system: DU-145 prostate
[7] = test system: SF-268 CNS
[8] = test system: HCC-2998 colon

Structure (SMILES) | GI50 [1] | TGI [1] | GI50 [2] | TGI [2] | GI50 [3] | TGI [3] | GI50 [4] | TGI [4] | GI50 [5] | TGI [5] | GI50 [6] | TGI [6] | GI50 [7] | TGI [7] | GI50 [8] | TGI [8]
Oc1ccc(-c2nc3ccc4[nH]ncc4c3c3c2CCCC3)c2cccnc12 | 0.523 µM | 2.61 µM | 0.148 µM | 10.8 µM | 0.512 µM | 1.97 µM | 0.164 µM | 13.1 µM | 0.163 µM | 2.21 µM | 0.5 µM | 8.13 µM | 0.239 µM | 5.24 µM | 0.319 µM | 5.45 µM
O=[N+]([O-])c1ccc(O)c2ncccc12 | 3.55 µM | 17.4 µM | – | > 100 µM and 19.1 µM | – | > 100 µM and 11.6 µM | – | > 100 µM and 32.6 µM | – | > 100 µM and 10.5 µM | – | > 100 µM and 15.2 µM | – | > 100 µM and 16 µM | 5.21 µM | 18.5 µM
Clc1ccc(-c2cn(-c3ccccc3)c(-c3ccccc3)n2)c(Cl)c1 | 1.32 µM | 6.92 µM | 3.18 µM | > 31.5 µM | > 20.2 µM | > 50 µM | 6.98 µM | > 42.6 µM | 2.47 µM | > 15.1 µM | 0.892 µM | 2.09 µM | 1.78 µM | > 11 µM | – | > 25.5 µM
COc1cc2c3c(n(C)c(=O)c2cc1OC)-c1cc2c(cc1/C3=C\[C@@H](N)CCCCN)OCO2 | 1.84 µM | 13.3 µM | 2.66 µM | > 45.8 µM | 0.467 µM | 7.38 µM | 1.46 µM | > 100 µM | 6.9 µM | > 100 µM | 0.717 µM | 37 µM | 1.86 µM | > 42 µM | 2.99 µM | 45.9 µM
COC(=O)[C@H](Cc1ccccc1)NC(=O)[C@@H](OC)[C@@H]1Cc2cc3cc(OC4CC(OC5CC(O)C(O)C(C)O5)C(O)C(C)O4)c(C)c(O)c3c(O)c2C(=O)[C@H]1OC1CC(OC2CC(OC3CC(C)(O)C(O)C(C)O3)C(O)C(C)O2)C(O)C(C)O1 (stereo partly specified) | 0.00693 µM | 0.0287 µM | 0.0108 µM | > 14.3 µM | 0.00473 µM | 0.0209 µM | 0.0173 µM | > 14.3 µM | 0.0267 µM | 0.105 µM | 0.0286 µM | > 14.3 µM | 0.0298 µM | 2.24 µM | 0.0158 µM | 0.0478 µM
C#CC#CC#CC#CC#CC#CC#CC#CCC1OC[C@H](COC(=O)O[C@@H](C(=O)O[C@H]2C[C@@]3(O)[C@@H](OC(=O)c4ccccc4)[C@@H]4[C@]5(OC(C)=O)CO[C@@H]5C[C@H](O)[C@@]4(C)C(=O)[C@H](OC(C)=O)C(=C2C)C3(C)C)[C@@H](NC(=O)c2ccccc2)c2ccccc2)O1 (stereo partly specified) | 1.16 µM | > 33.3 µM | 0.561 µM | > 33.3 µM | 0.907 µM | > 33.3 µM | 1.14 µM | > 33.3 µM | 0.386 µM | 3.59 µM | 0.228 µM | > 33.3 µM | 0.992 µM | > 33.3 µM | 0.52 µM | > 33.3 µM
CC(C)(C)c1nnc2n(c1=O)N=CC(c1ccc(Br)cc1)S2 (stereo unspecified) | 26.9 µM | 79.7 µM | 34.7 µM | > 100 µM | 17.5 µM | 32.7 µM | 51.3 µM | > 100 µM | 24.4 µM | 63.1 µM | 29.3 µM | > 100 µM | 42.7 µM | > 100 µM | 26.3 µM | 56.7 µM
c1ccc2c(c1)ccc1c3ccccc3ccc21 | > 50 µM | > 50 µM | > 50 µM | > 50 µM | > 50 µM | > 50 µM | > 50 µM | > 50 µM | > 50 µM | > 50 µM | > 50 µM | > 50 µM | > 50 µM | > 50 µM | > 50 µM | > 50 µM
CC1(C)CC[C@]2(C(=O)O)CC[C@]3(C)[C@H](CC[C@@H]4[C@@]5(C)CCC(=O)C(C)(C)[C@@H]5CC[C@]43C)[C@H]2[C@H]1OC(=O)C(F)(F)F | 12.9 µM | 30.7 µM | 12.9 µM | 30.1 µM | 6.66 µM | 20.3 µM | 13.8 µM | 27.9 µM | 8.34 µM | 27 µM | 14.1 µM | 34 µM | 15.3 µM | 33.6 µM | 10.7 µM | 22.8 µM
COc1ccc(-c2nn(-c3cccc(NC(=O)Nc4cccc(C(F)(F)F)c4)c3)cc2-c2ccncc2)cc1Cl | 2.07 µM | 8.72 µM | 1.7 µM | 10.4 µM | 2.02 µM | 5.59 µM | 3.85 µM | > 100 µM | 1.63 µM | 4.62 µM | 3.56 µM | > 100 µM | 3.22 µM | > 100 µM | 5.32 µM | > 100 µM
N#Cc1ccc2oc3ccc(C#N)cc3c(=O)c2c1 | – | 50.8 µM | – | > 100 µM | – | 41.6 µM | – | 64.8 µM | – | > 100 µM | – | > 100 µM | – | 69.1 µM | – | > 100 µM
